13 molecules from US6864287B1, “Derivatives of dicarboxylic acid having pharmaceutical properties” (Bayer Aktiengesellschaft, priority 1999, dated 2005) can be followed below.

Molecules are shown by their SMILES. pIC50: −log10 of the molar value.

The test system of one assay is arteria saphena. The assay is described as follows: Vasorelaxant action in vitro (phenylephrin-contracted artery rings). Set-up: species or system Rabbits. The note with it: Oryctolagus cuniculus; rabbit arteria saphena rings, contraction induced by phenylephrin; read-out: IC50 (concentration reducing the phenylephrin-induced contraction by 50%). The protocol: Vaso Relaxant Action in Vitro
Rabbits are anaesthetized by intravenous injection of thiopental sodium […] (about 50 mg/kg) and exsanguinated. The arteria saphena is removed and divided into 3 mm wide rings. The rings are individually mounted on in each case one triangular pair of hooks, open at the end, made of 0.3 mm strong special wire (Remanium®). Under a pretension, each ring is transferred into 5 ml organ baths containing a warm, carbogen-aerated Krebs-Henseleit solution at 37° C. having the following composition (mM): NaCl: 119; KCl: 4.8; CaCl2×2H2O: 1; MgSO4×7H2O: 1.4; KH2PO4: 1.2; NaHCO3: 25; glucose: 10; bovine serum albumin: 0.001%. The contractility is detected using Statham UC2 cells, amplified and digitalized by means of A/D converters (DAS-1802 HC, Keithley Instruments Munich), and recorded in parallel on linear recorders. Contractions are induced by addition of phenylephrin.
After several (in general 4) control cycles, the substance to be investigated is added in each further passage in increasing dosage, and the height of the contraction achieved under the influence of the test substance is compared with the height of the contraction achieved in the last preliminary passage. From this, the concentration which is necessary in order to reduce the contraction achieved in the preliminary control by 50% (IC50) is calculated. The standard administration volume is 5 μl. The proportion of DMSO in the bath solution corresponds to 0.1%.

The next assay deals with T1, Heme-free sGC (Rattus norvegicus, UniProt P20595).
T1 construct: made in house; host or cells: baculovirus/Sf9 insect cells
T1 sequence (P20595 1-619): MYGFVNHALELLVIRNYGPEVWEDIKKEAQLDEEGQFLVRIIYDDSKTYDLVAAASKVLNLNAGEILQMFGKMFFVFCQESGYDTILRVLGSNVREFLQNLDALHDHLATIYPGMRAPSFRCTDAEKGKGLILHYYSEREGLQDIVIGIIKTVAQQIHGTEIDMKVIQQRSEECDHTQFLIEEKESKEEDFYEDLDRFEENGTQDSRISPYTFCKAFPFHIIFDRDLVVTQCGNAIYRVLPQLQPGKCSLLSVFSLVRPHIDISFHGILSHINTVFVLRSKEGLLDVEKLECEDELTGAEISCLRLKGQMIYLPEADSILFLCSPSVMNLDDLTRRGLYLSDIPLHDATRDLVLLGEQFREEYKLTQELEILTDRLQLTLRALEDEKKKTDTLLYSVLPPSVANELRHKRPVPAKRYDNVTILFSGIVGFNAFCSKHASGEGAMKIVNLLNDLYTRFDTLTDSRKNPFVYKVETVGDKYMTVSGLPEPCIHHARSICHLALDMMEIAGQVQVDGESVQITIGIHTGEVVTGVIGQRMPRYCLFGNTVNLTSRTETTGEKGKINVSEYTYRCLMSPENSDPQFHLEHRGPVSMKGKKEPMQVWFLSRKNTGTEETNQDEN
T1 sequence (P19686 1-690 partner): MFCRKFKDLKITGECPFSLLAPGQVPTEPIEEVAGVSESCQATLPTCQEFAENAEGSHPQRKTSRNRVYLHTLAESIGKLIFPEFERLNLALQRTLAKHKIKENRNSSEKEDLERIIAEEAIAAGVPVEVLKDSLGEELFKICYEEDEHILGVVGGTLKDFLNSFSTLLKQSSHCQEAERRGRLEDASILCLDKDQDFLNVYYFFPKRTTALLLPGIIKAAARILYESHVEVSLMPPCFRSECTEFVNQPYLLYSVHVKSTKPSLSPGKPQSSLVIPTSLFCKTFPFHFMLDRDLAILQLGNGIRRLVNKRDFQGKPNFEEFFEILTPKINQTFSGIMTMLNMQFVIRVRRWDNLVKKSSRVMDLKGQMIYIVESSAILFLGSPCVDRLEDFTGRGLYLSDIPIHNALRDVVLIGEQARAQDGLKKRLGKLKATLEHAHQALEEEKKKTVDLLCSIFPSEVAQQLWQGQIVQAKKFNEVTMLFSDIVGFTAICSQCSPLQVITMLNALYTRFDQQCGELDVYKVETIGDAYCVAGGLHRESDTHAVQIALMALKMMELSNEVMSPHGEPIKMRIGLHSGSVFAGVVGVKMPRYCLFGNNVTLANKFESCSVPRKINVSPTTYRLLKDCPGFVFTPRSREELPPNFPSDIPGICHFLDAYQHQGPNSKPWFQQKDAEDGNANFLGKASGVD
The assay is described as follows: Stimulation of recombinant soluble guanylate cyclase (sGC) in vitro, heme-free enzyme. The format is biochemical. The method, then: (§1) Stimulation of Recombinant Soluble […] Cyclase (sGC) in Vitro
(§2) The investigation on the stimulation of recombinant soluble guanylate cyclase (sGC) and the compounds according to the invention with and without sodium nitroprusside and with and without the heme-dependent sGC inhibitor 1H-1,2,4-oxadiazole-(4,3a)-quinoxalin-1-one (ODQ) were carried out by the method described in detail in the following literature reference: M. Hoenicka, E. M. Becker, H. Apeler, T. Sirichoke, H. Schroeder. R Gerzer and J.-P. Stasch: Purified soluble guanylyl cyclase expressed in baculovirus/Sf9 system: stimulation by YC-1, nitric oxide, and carbon oxide. J. Mol, Med. 77 (1999): 14-23.
Heme-free guanylate cyclase was obtained by adding Tween 20 to the sample buffer (final concentration 0.5%).
(§3) Activation of sGC by a test substance is stated as n-fold stimulation of basal activity.

The target of another assay is T2, Heme-containing sGC (Rattus norvegicus, UniProt P20595).
T2 construct: made in house; host or cells: baculovirus/Sf9 insect cells
T2 sequence (P20595 1-619): T1 sequence (P20595 1-619)
T2 sequence (P19686 1-690 partner): T1 sequence (P19686 1-690 partner)
The assay is described as follows: Stimulation of recombinant soluble guanylate cyclase (sGC) in vitro, heme-containing enzyme. Type of assay: biochemical. The protocol: as §1, §2, §3

Consider `Cc1ccc(/C=C/C(CCCCC(=O)O)Cc2ccc(C(=O)O)cc2)c(OCc2ccccc2)c1` (centres unmarked) [Example 12], for which, in the assay on arteria saphena, the pIC50 was 6.95.

As to `O=C(O)CCCCC(/C=C/c1ccccc1OCCCOc1ccccc1)Cc1ccc(C(=O)O)cc1` (centres unmarked) [Example 24], the pIC50 in the assay on arteria saphena is 5.21.

In the case of `O=C(O)CCCCC(CCCc1cccc(OCCCCc2ccccc2)c1)Cc1ccc(C(=O)O)cc1` (centres unmarked) [Example 44, 6-(4Carboxybenzyl)-9-(3-(4-phenylbutoxy)phenyl)nonanoic acid], the pIC50 in the assay on arteria saphena is 5.11.

`O=C(O)CCCCC(/C=C/c1ccccc1CCc1ccccc1)Cc1ccc(C(=O)O)cc1` (centres unmarked) [Example 23]: the pIC50 in the assay with arteria saphena is 7.59.

For the molecule `CC(C)(C)c1ccc(COc2ccccc2/C=C/C(CCCCC(=O)O)Cc2ccc(C(=O)O)cc2)cc1` (centres unmarked) [Example 34], the pIC50 in the assay on arteria saphena was 9.46.

`O=C(O)CCCCC(CCc1ccccc1CCc1ccccc1)Cc1ccc(C(=O)O)cc1` (centres unmarked) [Example 40]: in the assay on arteria saphena, the pIC50 was 7.39.

Consider `N#Cc1ccc(CC(/C=C/c2ccccc2OCCCCCc2ccccc2)CCCCC(=O)O)cc1` (centres unmarked) [Example 13], for which the pIC50 in the assay with arteria saphena was 5.59.

With `O=C(O)CCCCC(CCc1ccccc1OCCCCCc1ccccc1)Cc1ccc(C(=O)O)cc1` (centres unmarked) [Example 41], the pIC50 in the assay with arteria saphena is 8.55.

With `O=C(O)CCCCC(/C=C/c1ccccc1OCc1ccccc1Cl)Cc1ccc(C(=O)O)cc1` (centres unmarked) [Example 14], the pIC50 in the assay with arteria saphena was 8.06.

For the molecule `O=C(O)CCCCC(/C=C/c1ccccc1OCCCCCc1ccccc1)Cc1ccccc1C(=O)O` (centres unmarked) [Example 60], the pIC50 with arteria saphena was 6.22.

With `O=C(O)CCCCC(/C=C/c1ccccc1OCCCCCc1ccccc1)Cc1ccc(C(=O)O)cc1` (centres unmarked) [Example 16], the pIC50 in the assay on arteria saphena was 8.30. For the same molecule, the “Stimulation (n-fold), + ODQ (10 μM)” value came out at 12 n-fold on Heme-free sGC (0.1 μM Ex. 16); 94 n-fold on Heme-free sGC (1.0 μM Ex. 16); 291 n-fold at Heme-free sGC (10 μM Ex. 16); 27 n-fold on Heme-containing sGC (0.1 μM Ex. 16); 52 n-fold at Heme-containing sGC (1.0 μM Ex. 16); 88 n-fold on Heme-containing sGC (10 μM Ex. 16). Besides, the “Stimulation (n-fold), Basal” value was 11 n-fold at Heme-free sGC (0.1 μM Ex. 16); 54 n-fold on Heme-free sGC (1.0 μM Ex. 16); 204 n-fold on Heme-free sGC (10 μM Ex. 16); 4 n-fold at Heme-containing sGC (0.1 μM Ex. 16); 9 n-fold on Heme-containing sGC (1.0 μM Ex. 16); 19 n-fold at Heme-containing sGC (10 μM Ex. 16). The results for the “Stimulation (n-fold), + SNP (0.1 μM)” value at Heme-containing sGC (0.1 μM Ex. 16), at Heme-containing sGC (1.0 μM Ex. 16) and on Heme-containing sGC (10 μM Ex. 16) were 14 n-fold, 33 n-fold and 29 n-fold, respectively.

In the case of `CCc1ccc(COc2ccccc2/C=C/C(CCCCC(=O)O)Cc2ccc(C(=O)O)cc2)cc1` (centres unmarked) [Example 35], the pIC50 in the assay with arteria saphena was 8.77.

Turning to `O=c1onc2cnc3ccccc3n12` [ODQ, 1H-1,2,4-oxadiazole-(4,3a)-quinoxalin-1-one, reference compound], the “Stimulation (n-fold), ODQ alone” value on Heme-free sGC (ODQ 10 μM, no Ex. 16 (0 μM)) worked out at 1 n-fold; at Heme-containing sGC (ODQ 10 μM, no Ex. 16 (0 μM)), 1 n-fold.
